Series [1] in a line: Unbound fraction in human plasma at 5 uM incubated for 6 hrs at 37 degC by LC-MS analysis based equilibrium dialysis. The class given is ADME, cell-free. (In general: Equilibrium dialysis compares concentrations on both sides of a semipermeable membrane.)
For series [2], the target named is Myosin light chain kinase family member 4 (Homo sapiens, UniProt Q86YV6). Kind of series: Binding affinity to wild-type human partial length MYLK4 (V79 to S380 residues) expressed in bacterial expression system by active-site directed competition binding assay based Kinomescan method.
The nature of series [3]: Solubility in assay media (PTU-E3 water). The note with it: buffer. Type of series: physicochemical.
In another series the test system is BT-20. Kind of series: Cytotoxicity in human BT20 cells assessed as reduction in cell viability incubated for 72 hrs by SRB assay. The note with it: BT-20, 72 h. In general terms: Sulforhodamine B stains cellular protein and so reports cell mass.
Series [4] can be described thus: Stability in human plasma assessed as parent compound remaining level at 5 uM incubated for 1 hr by LC-MS analysis. The class given is ADME, cell-free. The following applies: read-out: Stability.
For series [5], the target named is Serine/threonine-protein kinase pim-1 (Homo sapiens, UniProt P11309). In words: Inhibition of PIM1 (unknown origin) assessed as residual enzyme activity at 50 uM by [33P]-ATP filter binding kinase assay relative to control.
In the next series the test system is MDA-MB-436. Kind of series: Cytotoxicity in human MDA-MB-436 cells assessed as reduction in cell viability incubated for 72 hrs by SRB assay. The note with it: MDA-MB-436, 72 h.
For series [6], the target named is Phosphatidylinositol 4-kinase beta (Homo sapiens, UniProt Q9UBF8). Kind of series: Binding affinity to wild-type human full length PIK4CB (M1 to M828 residues) expressed in mammalian expression system by active-site directed competition binding assay based Kinomescan method.
Series [7] can be described thus: Permeability assessed as drug flux at 500 uM incubated for 20 hrs by PAMPA. Type of series: ADME.
In a further series the test system is SK-BR-3. Kind of series: Cytotoxicity in human SK-BR-3 cells assessed as reduction in cell viability incubated for 72 hrs by SRB assay. The note with it: SK-BR-3, 72 h.
For series [8], the target named is Mitogen-activated protein kinase 15 (Homo sapiens) (UniProt Q8TD08). Kind of series: Binding affinity to wild-type human partial length ERK8 (M1 to P437 residues) expressed in bacterial expression system assessed as residual binding level at 10 uM by active-site directed competition binding assay based Kinomescan method relative to control.
Series [9] concerns the target Mitogen-activated protein kinase kinase kinase 9 (Homo sapiens, UniProt P80192). In words: Inhibition of MLK1 (unknown origin) assessed as residual enzyme activity at 5 uM by [33P]-ATP filter binding kinase assay relative to control.

The source of these data is ChEMBL document CHEMBL4334516, “Kinase Chemodiversity from the Arctic: The Breitfussins” (J Med Chem, 2019).

Usually Kd stands for the free concentration of one partner at which half of the binding sites on the other are occupied at equilibrium, for simple one-to-one binding. The IC50 is the concentration needed to halve the response being measured.

Sequence of Phosphatidylinositol 4-kinase beta (Q9UBF8 whole entry, the tested form may be a part): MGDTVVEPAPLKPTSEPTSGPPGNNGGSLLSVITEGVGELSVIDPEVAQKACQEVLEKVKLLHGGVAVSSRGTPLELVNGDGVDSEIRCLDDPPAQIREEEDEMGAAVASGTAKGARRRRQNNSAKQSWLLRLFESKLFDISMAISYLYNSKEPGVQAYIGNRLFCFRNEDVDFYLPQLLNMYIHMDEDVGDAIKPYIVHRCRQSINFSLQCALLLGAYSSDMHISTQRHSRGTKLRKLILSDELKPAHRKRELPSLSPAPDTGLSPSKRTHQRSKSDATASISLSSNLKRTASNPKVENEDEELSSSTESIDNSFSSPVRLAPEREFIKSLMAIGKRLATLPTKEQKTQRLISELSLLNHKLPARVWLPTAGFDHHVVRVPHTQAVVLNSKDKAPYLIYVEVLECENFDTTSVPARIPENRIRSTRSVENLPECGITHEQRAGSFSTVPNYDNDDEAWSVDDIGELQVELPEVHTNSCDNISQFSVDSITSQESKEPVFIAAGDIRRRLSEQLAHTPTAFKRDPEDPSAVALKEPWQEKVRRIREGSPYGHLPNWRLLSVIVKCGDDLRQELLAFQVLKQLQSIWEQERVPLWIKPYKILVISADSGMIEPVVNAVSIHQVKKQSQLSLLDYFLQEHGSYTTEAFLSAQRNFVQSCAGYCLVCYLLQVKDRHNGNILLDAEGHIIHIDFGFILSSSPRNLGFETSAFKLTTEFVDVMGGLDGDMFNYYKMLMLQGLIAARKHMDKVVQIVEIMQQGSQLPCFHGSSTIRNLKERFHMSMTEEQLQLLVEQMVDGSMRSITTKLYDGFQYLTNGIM
Sequence of Mitogen-activated protein kinase 15 (Homo sapiens) (Q8TD08 whole entry, the tested form may be a part): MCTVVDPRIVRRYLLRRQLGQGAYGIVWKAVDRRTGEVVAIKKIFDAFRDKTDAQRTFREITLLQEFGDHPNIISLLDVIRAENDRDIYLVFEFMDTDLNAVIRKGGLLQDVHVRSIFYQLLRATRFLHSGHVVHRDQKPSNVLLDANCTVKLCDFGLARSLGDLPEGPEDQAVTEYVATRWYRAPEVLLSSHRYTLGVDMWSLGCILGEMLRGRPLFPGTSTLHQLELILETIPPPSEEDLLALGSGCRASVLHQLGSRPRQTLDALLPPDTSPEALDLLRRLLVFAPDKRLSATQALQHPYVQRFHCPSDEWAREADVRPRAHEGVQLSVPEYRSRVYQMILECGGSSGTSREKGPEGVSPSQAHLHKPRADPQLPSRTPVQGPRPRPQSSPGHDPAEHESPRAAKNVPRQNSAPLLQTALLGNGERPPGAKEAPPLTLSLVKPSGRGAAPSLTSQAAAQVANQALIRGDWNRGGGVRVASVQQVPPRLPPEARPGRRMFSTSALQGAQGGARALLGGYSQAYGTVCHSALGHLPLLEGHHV
Sequence of Serine/threonine-protein kinase pim-1 (P11309 whole entry, looked up): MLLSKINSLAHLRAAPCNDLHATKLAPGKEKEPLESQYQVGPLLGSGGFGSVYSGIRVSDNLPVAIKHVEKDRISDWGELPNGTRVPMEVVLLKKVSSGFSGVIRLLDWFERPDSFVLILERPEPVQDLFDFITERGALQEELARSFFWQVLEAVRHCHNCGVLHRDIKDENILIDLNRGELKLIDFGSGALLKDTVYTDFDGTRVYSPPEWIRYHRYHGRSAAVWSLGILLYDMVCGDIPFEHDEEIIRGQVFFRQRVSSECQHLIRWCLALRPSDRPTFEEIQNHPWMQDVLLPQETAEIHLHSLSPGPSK
Sequence of Myosin light chain kinase family member 4 (Q86YV6 whole entry, the tested form may be a part): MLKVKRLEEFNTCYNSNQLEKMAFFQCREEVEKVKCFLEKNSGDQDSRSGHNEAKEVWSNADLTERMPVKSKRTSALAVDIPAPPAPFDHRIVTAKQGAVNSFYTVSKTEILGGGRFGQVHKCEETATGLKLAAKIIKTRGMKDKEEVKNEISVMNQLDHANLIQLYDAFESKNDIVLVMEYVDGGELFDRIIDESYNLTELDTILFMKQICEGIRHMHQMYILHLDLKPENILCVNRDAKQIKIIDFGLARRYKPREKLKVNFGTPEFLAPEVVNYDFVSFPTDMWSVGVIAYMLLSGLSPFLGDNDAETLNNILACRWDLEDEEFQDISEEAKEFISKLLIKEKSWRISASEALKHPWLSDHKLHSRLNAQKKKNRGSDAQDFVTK
Sequence of Mitogen-activated protein kinase kinase kinase 9 (P80192 whole entry, looked up): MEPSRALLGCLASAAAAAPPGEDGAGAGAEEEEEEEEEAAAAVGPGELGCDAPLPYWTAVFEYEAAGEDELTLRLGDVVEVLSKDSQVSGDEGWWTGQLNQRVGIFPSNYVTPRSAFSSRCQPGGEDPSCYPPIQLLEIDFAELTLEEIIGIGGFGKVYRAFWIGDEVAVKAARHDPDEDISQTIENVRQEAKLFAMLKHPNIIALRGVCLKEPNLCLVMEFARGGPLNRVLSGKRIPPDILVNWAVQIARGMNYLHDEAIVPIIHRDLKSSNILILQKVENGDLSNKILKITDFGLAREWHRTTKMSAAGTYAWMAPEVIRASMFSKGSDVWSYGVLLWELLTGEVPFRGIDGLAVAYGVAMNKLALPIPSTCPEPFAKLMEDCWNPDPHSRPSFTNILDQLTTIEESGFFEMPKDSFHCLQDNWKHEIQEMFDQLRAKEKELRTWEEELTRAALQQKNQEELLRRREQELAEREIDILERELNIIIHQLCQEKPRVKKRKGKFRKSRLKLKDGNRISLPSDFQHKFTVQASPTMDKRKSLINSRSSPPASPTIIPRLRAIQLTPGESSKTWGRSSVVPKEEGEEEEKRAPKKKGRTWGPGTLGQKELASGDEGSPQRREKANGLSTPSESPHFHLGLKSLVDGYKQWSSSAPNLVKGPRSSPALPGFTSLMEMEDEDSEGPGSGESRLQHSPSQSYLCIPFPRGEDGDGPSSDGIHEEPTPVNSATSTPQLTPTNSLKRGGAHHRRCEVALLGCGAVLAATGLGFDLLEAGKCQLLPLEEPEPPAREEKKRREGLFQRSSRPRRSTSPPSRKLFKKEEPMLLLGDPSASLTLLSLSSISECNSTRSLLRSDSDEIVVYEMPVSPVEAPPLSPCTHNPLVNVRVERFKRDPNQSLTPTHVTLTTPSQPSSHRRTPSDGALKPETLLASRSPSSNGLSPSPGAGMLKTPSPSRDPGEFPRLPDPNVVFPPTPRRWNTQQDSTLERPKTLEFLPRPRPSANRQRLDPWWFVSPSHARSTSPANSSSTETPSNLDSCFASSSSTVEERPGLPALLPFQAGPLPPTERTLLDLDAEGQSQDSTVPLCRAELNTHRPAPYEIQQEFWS

In turn, `COc1cc2c(-c3cnc(-c4ccc[nH]4)o3)c[nH]c2cc1Br` registered a Fu in series [1] of 0.3%. Besides, the Kd in series [2] was determined as 430 nM; in [6] it was 2900 nM. Besides, the solubility result in [3] was “Insoluble”. For the same compound, the IC50 was above 30000 nM with BT-20, above 30000 nM in the series on MDA-MB-436 and 1500 nM with SK-BR-3. For the same compound, the remaining at 1 h, 5 µM in series [4] is 83%. For the same compound, the Activity in [5] came to 2%; in series [8] it was 67%. Besides, in [7], the permeability was determined as 23%.

As for `COc1cc(Br)cc2[nH]cc(-c3cnc(-c4ccc[nH]4)o3)c12`, the Activity in series [9] came to 7%.
